The values below come from publication PMC3567921 (Clinical cancer research : an official journal of the …, 2012).

As usually defined, the EC50 is the concentration needed to bring the measured effect to its halfway point. Read a low EC50 as an effect from little substance.

A value given as a limit tells only on which side of the number the result lay.

This assay addresses T1, Axl (Homo sapiens, UniProt P30530).
T1 sequence (P30530 26-894): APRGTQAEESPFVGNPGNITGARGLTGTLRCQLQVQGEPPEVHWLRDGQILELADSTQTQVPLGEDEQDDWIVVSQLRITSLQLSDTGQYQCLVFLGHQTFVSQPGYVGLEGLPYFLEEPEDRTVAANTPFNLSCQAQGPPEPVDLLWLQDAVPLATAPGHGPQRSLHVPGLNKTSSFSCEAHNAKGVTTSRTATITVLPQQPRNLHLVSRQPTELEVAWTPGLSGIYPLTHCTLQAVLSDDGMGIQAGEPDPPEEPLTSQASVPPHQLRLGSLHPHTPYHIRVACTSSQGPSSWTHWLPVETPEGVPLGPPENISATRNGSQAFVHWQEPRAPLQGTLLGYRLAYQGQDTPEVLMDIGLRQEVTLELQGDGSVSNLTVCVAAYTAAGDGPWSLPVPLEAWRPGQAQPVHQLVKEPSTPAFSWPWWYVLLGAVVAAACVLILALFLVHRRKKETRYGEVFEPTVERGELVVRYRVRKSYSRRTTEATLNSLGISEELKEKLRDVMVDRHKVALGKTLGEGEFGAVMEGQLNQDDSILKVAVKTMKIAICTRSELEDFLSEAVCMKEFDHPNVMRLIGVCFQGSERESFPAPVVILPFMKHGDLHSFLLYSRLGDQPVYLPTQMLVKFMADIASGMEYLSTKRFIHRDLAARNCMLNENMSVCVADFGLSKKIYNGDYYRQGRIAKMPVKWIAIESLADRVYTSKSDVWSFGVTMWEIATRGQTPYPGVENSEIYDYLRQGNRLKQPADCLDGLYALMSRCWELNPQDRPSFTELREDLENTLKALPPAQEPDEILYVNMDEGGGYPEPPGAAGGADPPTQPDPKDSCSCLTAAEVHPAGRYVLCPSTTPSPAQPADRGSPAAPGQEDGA
The assay can be described thus: anti-FLAG immunoprecipitation, phosphotyrosine Western blot densitometry. It counts as cell-based. (Immunoblotting shows a protein as a band on a membrane.)

Consider `Cc1c[nH]c2nc(Nc3ccc(N4CCN(C)CC4)c(F)c3)nc(-c3cccc(CC#N)c3)c12` [SGI-7079], for which the EC50 was < 100 nM.
